Patent EP0318240A2, “Peptide, adsorbent, method for production thereof, and method for use thereof” (AGENCY OF INDUSTRIAL SCIENCE & TECHNOLOGY MINISTRY OF …, priority 1987, dated 1989)

Assay: Solubility of peptide in the phosphate buffer solution used for immobilization
Type: physicochemical
Conditions: phosphate buffer solution (0.02 mol/liter) of pH 7.4
Protocol: • (a) In 50 ml of dioxane obtained by distillation in the presence of sodium metal, 10 g of cellulose particles (marketed by Seikagaku Kogyo Co., Ltd. under the tradename "CM-Cellulofine CH") were suspended. In the suspension, 0.5 g of N-hydroxysuccinimide and 1.0 g of dicyclohexylcarbodiimide added thereto were shaken overnight at room temperature. The resultant mixture was washed with a phosphate buffer solution (0.02 mol/liter) of pH 7.4 and suction filtered. The particles consequently obtained and 20 ml of a phosphate buffer solution (0.02 mol/liter) of pH 7.4 containing 20 mg of the peptide of Example 1 added thereto were stirred overnight at a temperature of 4°C. The mixture consequently obtained was suction filtered. […] Thus, about 10 g of cellulose particles (the adsorbent not heat treated) having immobilized thereon 20 mg of the peptide of Example 1 were obtained. • (b) In 5-ml aliquots of a phosphate buffer solution (0.02 mol/liter) of pH 7.4 containing sodium chloride in a concentration of 0.15 mol/liter, the peptide-immobilized cellulose particles obtained as described above were suspended in a unit amount of 1 g. […]

H-Leu-Leu-Gly-Trp-Lys-His-Trp-Val-Tyr-Tyr-Thr- C y s - C^y s -Pro-Asp-Thr-Pro-Tyr-Leu-Asp-OH [Referential Example 2]
solubility in the phosphate buffer solution: low solubility
